Results on five compounds are retold here after ChEMBL document CHEMBL1123909, “New inhibitors of human renin that contain novel Leu-Val replacements” (J Med Chem, 1987).

Assay [1] has as its target T1, Renin (Homo sapiens) (UniProt P00797).
T1 sequence (whole entry): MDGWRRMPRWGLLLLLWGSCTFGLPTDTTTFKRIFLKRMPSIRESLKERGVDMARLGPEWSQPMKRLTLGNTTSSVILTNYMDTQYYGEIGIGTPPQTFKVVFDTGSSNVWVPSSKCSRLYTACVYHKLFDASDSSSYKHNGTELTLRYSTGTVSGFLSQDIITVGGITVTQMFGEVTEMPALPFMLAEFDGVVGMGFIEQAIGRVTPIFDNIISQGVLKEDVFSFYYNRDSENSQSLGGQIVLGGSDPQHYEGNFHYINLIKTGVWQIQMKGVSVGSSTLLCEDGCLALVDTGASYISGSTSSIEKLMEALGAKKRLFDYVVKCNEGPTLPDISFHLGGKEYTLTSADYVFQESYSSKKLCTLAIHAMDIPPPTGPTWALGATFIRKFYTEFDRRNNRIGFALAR
The experiment in a line: The compound was tested for inhibition of human renal renin at the concentration of 10e-5 M (compound with OH epimer).

Assay [2] concerns the target T1, Renin (Homo sapiens). Put plainly: The compound was tested for inhibition of human renal renin at the concentration of 10e-7 M.
In assay [3] the target is Pepsin A (Sus scrofa) (UniProt P00791). The experiment in a line: Inhibition of porcine pepsin. The following applies: concentration not given here. Further details: concentration or dose not given beside the values.
Assay [4] addresses T2, Renin (Homo sapiens, UniProt P00797).
T2 sequence (P00797 whole entry): T1 sequence (whole entry)
Put plainly: The compound was tested for inhibition of human renal renin at the pH optimum 7.4.

In assay [5] the target is T1, Renin (Homo sapiens). Put plainly: The compound was tested for inhibition of human renal renin at the concentration of 10e-6 M.
For assay [6], the target named is T1, Renin (Homo sapiens). Put plainly: The compound was tested for inhibition of human renal renin at the concentration of 10e-5 M (2:1 mixture of S:R diastereomers at the carbon bearing the hydroxyl group.

Pepsin A (Sus scrofa), sequence (P00791 60-385 limits assumed): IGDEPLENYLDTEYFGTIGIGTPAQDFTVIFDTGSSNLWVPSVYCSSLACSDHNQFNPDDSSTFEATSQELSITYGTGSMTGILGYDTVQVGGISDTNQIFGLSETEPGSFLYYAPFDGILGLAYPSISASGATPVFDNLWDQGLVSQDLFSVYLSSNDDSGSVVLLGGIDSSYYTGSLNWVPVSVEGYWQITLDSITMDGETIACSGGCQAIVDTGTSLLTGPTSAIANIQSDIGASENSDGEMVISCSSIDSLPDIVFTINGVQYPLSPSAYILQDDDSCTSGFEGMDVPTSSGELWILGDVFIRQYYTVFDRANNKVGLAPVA

`CC(C)CC[C@@H](O)[C@H](CC(C)C)NC(=O)[C@H](C)NC(=O)[C@H](Cc1ccccc1)NC(=O)OC(C)(C)C`: the inhibition in assay [1] was 16%.

For the compound `CC(C)C[C@H](NC(=O)[C@H](Cc1c[nH]cn1)NC(=O)[C@H](Cc1ccccc1)NC(=O)OC(C)(C)C)[C@@H](O)CSC1CCCCC1` (stereo in doubt; 56), the inhibition in assay [1] amounted to 95%.

As for `CC(C)C[C@@H](NC(=O)[C@H](Cc1c[nH]cn1)NC(=O)[C@H](Cc1ccc2ccccc2c1)NC(=O)OC(C)(C)C)[C@H](O)CSC1CCCCC1`, the inhibition in assay [2] was 85%; in assay [3], 0%. This compound yielded an IC50 in assay [4] of 40 nM.

With `CC(C)CC[C@@H](O)[C@@H](CC(C)C)NC(=O)[C@H](Cc1c[nH]cn1)NC(=O)[C@H](Cc1cccc2ccccc12)NC(=O)OC(C)(C)C`, the inhibition in assay [3] turned out to be 6%; in assay [5] it was 93%. The IC50 in assay [4] was found to be 150 nM.

On to `CC(C)C[C@@H](NC(=O)[C@H](C)NC(=O)[C@H](Cc1ccccc1)NC(=O)OC(C)(C)C)[C@H](O)CCc1ccccc1`, for which, in assay [6], the inhibition came out at 35%.
